ChEMBL document CHEMBL1201862, “PubChem BioAssay data set” (2004)
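Assay format: 96-well plates, 48-hour exposure. GI50 is the concentration that inhibits growth by half.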 Calls of active or inactive are those of the source. No stated cut-off is given here; in the data, active = GI50 up to about 1.1 µM and inactive = higher.

What was measured:
Assay in all cases: inhibition of tumour cell growth, NCI panel, 48 h
SK-OV-3 = tested on: SK-OV-3
UACC-62 = tested on: UACC-62
SNB-19 = tested on: SNB-19
OVCAR-8 = tested on: OVCAR-8
UACC-257 = tested on: UACC-257
HOP-62 = tested on: HOP-62
HOP-92 = tested on: HOP-92
MCF7 = tested on: MCF7
ACHN = tested on: ACHN
SN12C = tested on: SN12C
OVCAR-3 = tested on: OVCAR-3
A498 = tested on: A498
NCI-H460 = tested on: NCI-H460
MDA-MB-435 = tested on: MDA-MB-435
DU-145 = tested on: DU-145
HL-60 = tested on: HL-60
RPMI-8226 = tested on: RPMI-8226
HT-29 = tested on: HT-29
M14 = tested on: M14
K562 = tested on: K562

O=[N+]([O-])c1cc(C(F)(F)F)cc2n[se]nc12
GI50 (SK-OV-3): 13.6 µM (inactive)
GI50 (UACC-62): 4.15 µM (inactive)
GI50 (SNB-19): 15.5 µM (inactive)
GI50 (OVCAR-8): 1.97 µM (inactive)
GI50 (UACC-257): 2.16 µM (inactive)
GI50 (HOP-62): 15.7 µM (inactive)
GI50 (HOP-92): 2.26 µM (inactive)
GI50 (MCF7): 1.97 µM (inactive)
GI50 (ACHN): 2.65 µM (inactive)
GI50 (SN12C): 4.88 µM (inactive)
GI50 (OVCAR-3): 1.67 µM (inactive)
GI50 (A498): 16.8 µM (inactive)
GI50 (NCI-H460): 6.22 µM (inactive)
GI50 (MDA-MB-435): 2.33 µM (inactive)
GI50 (DU-145): 3.21 µM (inactive)
GI50 (HL-60): 0.429 µM (active)
GI50 (RPMI-8226): 1.21 µM (inactive)
GI50 (HT-29): 7.29 µM (inactive)
GI50 (M14): 1.71 µM (inactive)
GI50 (K562): 0.822 µM (active)

Cc1ccc2nc(Cl)c(/C=N/N3C(=O)/C(=C/Cc4ccco4)N=C3c3ccccc3)cc2c1
GI50 (SK-OV-3): > 100 µM (inactive)
GI50 (UACC-62): 60.5 µM (inactive)
GI50 (SNB-19): 35.8 µM (inactive)
GI50 (OVCAR-8): 34.4 µM (inactive)
GI50 (UACC-257): 32.7 µM (inactive)
GI50 (HOP-62): 62.2 µM (inactive)
GI50 (HOP-92): 28.9 µM (inactive)
GI50 (MCF7): 40.3 µM (inactive)
GI50 (ACHN): 72.3 µM (inactive)
GI50 (SN12C): 26.5 µM (inactive)
GI50 (OVCAR-3): 71.1 µM (inactive)
GI50 (A498): 5.06 µM (inactive)
GI50 (NCI-H460): 26.4 µM (inactive)
GI50 (MDA-MB-435): 2.1 µM (inactive)
GI50 (DU-145): 36.6 µM (inactive)
GI50 (HL-60): 34.1 µM (inactive)
GI50 (RPMI-8226): 27 µM (inactive)
GI50 (HT-29): 32.7 µM (inactive)
GI50 (M14): 27.7 µM (inactive)
GI50 (K562): 38.1 µM (inactive)

CCCCCCCCCCCCCCCCCCNc1ccn(C2OC(COP(=O)(O)OC3CC(n4cc(F)c(=O)[nH]c4=O)OC3COP(=O)(O)OCC3OC(n4ccc(N)nc4=O)C(O)C3O)C(O)C2O)c(=O)n1 (stereo not given)
GI50 (SK-OV-3): 19.9 µM (inactive)
GI50 (UACC-62): 1.1 µM (active)
GI50 (SNB-19): 9.2 µM (inactive)
GI50 (OVCAR-8): 3.1 µM (inactive)
GI50 (UACC-257): 22.6 µM (inactive)
GI50 (HOP-62): 10.4 µM (inactive)
GI50 (HOP-92): > 60.4 µM (inactive)
GI50 (MCF7): 0.276 µM (active)
GI50 (ACHN): 0.143 µM (active)
GI50 (SN12C): 15.8 µM (inactive)
GI50 (OVCAR-3): 30.5 µM (inactive)
GI50 (A498): 20.8 µM (inactive)
GI50 (NCI-H460): < 0.0129 µM (active)
GI50 (MDA-MB-435): 8.18 µM (inactive)
GI50 (DU-145): 1.08 µM (active)
GI50 (HL-60): 0.26 µM (active)
GI50 (RPMI-8226): 14.9 µM (inactive)
GI50 (HT-29): 13.7 µM (inactive)
GI50 (M14): 0.453 µM (active)
GI50 (K562): 16.6 µM (inactive)

C[C@@]12C[C@@H](c3ccccc3O1)N1CCSC1=N2
GI50 (SK-OV-3): > 100 µM (inactive)
GI50 (UACC-62): > 100 µM (inactive)
GI50 (SNB-19): > 100 µM (inactive)
GI50 (OVCAR-8): > 100 µM (inactive)
GI50 (UACC-257): > 100 µM (inactive)
GI50 (HOP-62): > 100 µM (inactive)
GI50 (HOP-92): > 100 µM (inactive)
GI50 (MCF7): > 100 µM (inactive)
GI50 (ACHN): > 100 µM (inactive)
GI50 (SN12C): > 100 µM (inactive)
GI50 (OVCAR-3): > 100 µM (inactive)
GI50 (A498): > 100 µM (inactive)
GI50 (NCI-H460): > 100 µM (inactive)
GI50 (MDA-MB-435): > 100 µM (inactive)
GI50 (DU-145): > 100 µM (inactive)
GI50 (HL-60): > 100 µM (inactive)
GI50 (RPMI-8226): > 100 µM (inactive)
GI50 (HT-29): > 100 µM (inactive)
GI50 (M14): > 100 µM (inactive)
GI50 (K562): > 100 µM (inactive)

c1ccc2c(c1)OC(N1CCCC1)c1cnc(N3CCCC3)nc1-2 (stereo not given)
GI50 (SK-OV-3): 44.1 µM (inactive)
GI50 (UACC-62): 50.7 µM (inactive)
GI50 (SNB-19): 92.5 µM (inactive)
GI50 (OVCAR-8): 51.3 µM (inactive)
GI50 (UACC-257): 20.6 µM (inactive)
GI50 (HOP-62): 68.2 µM (inactive)
GI50 (HOP-92): 13.6 µM (inactive)
GI50 (MCF7): 18.6 µM (inactive)
GI50 (ACHN): 40.6 µM (inactive)
GI50 (SN12C): 45.2 µM (inactive)
GI50 (OVCAR-3): 22.9 µM (inactive)
GI50 (A498): 26.5 µM (inactive)
GI50 (NCI-H460): 36.7 µM (inactive)
GI50 (MDA-MB-435): 49.8 µM (inactive)
GI50 (DU-145): 49.9 µM (inactive)
GI50 (HL-60): 27.4 µM (inactive)
GI50 (RPMI-8226): 20.7 µM (inactive)
GI50 (HT-29): 36.2 µM (inactive)
GI50 (M14): 50.9 µM (inactive)
GI50 (K562): 34.3 µM (inactive)
